According to US10377753B2, “Substituted 4-azaindoles and their use as GluN2B receptor modulators” (Janssen Pharmaceutica NV, priority 2015, dated 2019):
Where a name gives a salt, the structure may show the parent alone.

Target: cloned human NR1/NR2B ion channels (Homo sapiens (Human), UniProt Q05586+Q13224)
Test: HNR2BC: effects of test articles on cloned human NR1/NR2B ion channels expressed in mammalian cells (FLIPR calcium flux)
Assay type: cell-based
Details: cloned human NR1/NR2B, Table 5
Outline: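 In a stable Tet-On-induced cell line expressing human GluN1/GluN2B, Calcium 5-loaded cells were preincubated 5 min with compound, then stimulated 5 min with glutamate at ~EC80 plus 10 μM glycine, in pH 7.4 HEPES buffer. FLIPR calcium fluorescence was normalized to control wells.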

Sequence of cloned human NR1/NR2B ion channels (Q13224 27-1484, other chains not shown): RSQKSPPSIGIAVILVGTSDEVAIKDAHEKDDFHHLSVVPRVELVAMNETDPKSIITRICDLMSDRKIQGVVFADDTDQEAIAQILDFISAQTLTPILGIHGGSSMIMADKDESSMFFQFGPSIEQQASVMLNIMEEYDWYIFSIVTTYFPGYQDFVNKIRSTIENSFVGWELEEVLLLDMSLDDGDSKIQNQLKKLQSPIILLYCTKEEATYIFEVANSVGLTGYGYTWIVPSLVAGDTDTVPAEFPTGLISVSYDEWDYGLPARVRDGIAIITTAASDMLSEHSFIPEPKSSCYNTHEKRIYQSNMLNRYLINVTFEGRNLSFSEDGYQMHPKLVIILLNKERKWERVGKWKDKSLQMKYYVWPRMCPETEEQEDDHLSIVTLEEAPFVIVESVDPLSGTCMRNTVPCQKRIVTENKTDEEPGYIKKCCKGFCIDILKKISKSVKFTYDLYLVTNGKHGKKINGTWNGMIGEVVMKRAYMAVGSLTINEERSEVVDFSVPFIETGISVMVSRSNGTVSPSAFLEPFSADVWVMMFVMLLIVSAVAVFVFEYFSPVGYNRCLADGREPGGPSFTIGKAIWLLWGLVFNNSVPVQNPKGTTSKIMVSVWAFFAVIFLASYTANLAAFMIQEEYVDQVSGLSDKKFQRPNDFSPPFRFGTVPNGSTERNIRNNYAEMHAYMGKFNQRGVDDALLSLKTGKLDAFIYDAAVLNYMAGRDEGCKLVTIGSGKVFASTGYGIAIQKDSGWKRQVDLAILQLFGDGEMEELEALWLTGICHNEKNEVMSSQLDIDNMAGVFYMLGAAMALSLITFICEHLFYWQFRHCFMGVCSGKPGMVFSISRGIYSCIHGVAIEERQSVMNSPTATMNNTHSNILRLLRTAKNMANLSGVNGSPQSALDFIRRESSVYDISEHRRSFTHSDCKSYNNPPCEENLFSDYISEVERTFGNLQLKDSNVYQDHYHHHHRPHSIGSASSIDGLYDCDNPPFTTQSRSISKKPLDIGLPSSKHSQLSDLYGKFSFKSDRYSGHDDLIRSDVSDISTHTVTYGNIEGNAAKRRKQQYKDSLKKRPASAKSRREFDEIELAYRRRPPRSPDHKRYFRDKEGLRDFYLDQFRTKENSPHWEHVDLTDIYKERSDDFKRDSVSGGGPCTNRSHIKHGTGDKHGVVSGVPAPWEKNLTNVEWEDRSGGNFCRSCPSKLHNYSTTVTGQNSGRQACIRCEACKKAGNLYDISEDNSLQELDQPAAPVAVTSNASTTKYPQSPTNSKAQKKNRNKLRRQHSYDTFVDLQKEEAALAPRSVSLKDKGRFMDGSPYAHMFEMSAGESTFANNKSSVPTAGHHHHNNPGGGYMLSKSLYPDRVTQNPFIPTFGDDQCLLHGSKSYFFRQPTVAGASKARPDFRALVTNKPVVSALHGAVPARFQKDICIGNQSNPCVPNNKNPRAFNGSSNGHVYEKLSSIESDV

SMILES | IC50 [nM] | pIC50
O=C(Cn1ccc2ncc(-c3ccc(F)cc3F)cc21)N1CCC1 [Example 133, 1-(Azetidin-1-yl)-2-[6-(2,4-difluorophenyl)pyrrolo[3,2-b]pyridin-1-yl]ethanone] | 79.4 | –
O=C(Cn1ccc2ncc(-c3cccc(F)c3F)cc21)N1CCC1 [Example 134, 1-(Azetidin-1-yl)-2-[6-(2,3-difluorophenyl)pyrrolo[3,2-b]pyridin-1-yl]ethanone] | 31.6 | –
O=C(Cn1ccc2ncc(-c3cc(F)ccc3F)cc21)N1CCC1 [Example 135, 1-(Azetidin-1-yl)-2-[6-(2,5-difluorophenyl)pyrrolo[3,2-b]pyridin-1-yl]ethanone] | 39.8 | –
Cc1csc(-c2cnc3ccn(Cc4ccc(C(F)(F)F)o4)c3c2)c1 [Example 137, 6-(4-Methyl-2-thienyl)-1-[[5-(trifluoromethyl)-2-furyl]methyl]pyrrolo[3,2-b]pyridine] | – | 7.7
Cc1cc(-c2cnc3ccn(CC(=O)C(C)(C)C)c3c2)ccc1F [Example 141, 1-[6-(4-Fluoro-3-methyl-phenyl)pyrrolo[3,2-b]pyridin-1-yl]-3,3-dimethyl-butan-2-one] | 398 | –
CC(C)(C)C(=O)Cn1ccc2ncc(-c3cc(F)cc(F)c3)cc21 [Example 142, 1-[6-(3,5-Difluorophenyl)pyrrolo[3,2-b]pyridin-1-yl]-3,3-dimethyl-butan-2-one] | 501 | –
Cc1csc(-c2cnc3ccn(CC(=O)C(C)(C)C)c3c2)c1 [Example 143, 3,3-Dimethyl-1-[6-(4-methyl-2-thienyl)pyrrolo[3,2-b]pyridin-1-yl]butan-2-one] | 794 | –
CN(C)C(=O)Cn1cc(Cl)c2ncc(-c3ccc(F)c(F)c3)cc21 [Example 147, 2-[3-Chloro-6-(3,4-difluorophenyl)pyrrolo[3,2-b]pyridin-1-yl]-N,N-dimethyl-acetamide] | 50.1 | –
CN(C)C(=O)Cn1cc(Cl)c2ncc(-c3cc(F)cc(F)c3)cc21 [Example 148, 2-[3-Chloro-6-(3,5-difluorophenyl)pyrrolo[3,2-b]pyridin-1-yl]-N,N-dimethyl-acetamide] | 50.1 | –
Cc1csc(-c2cnc3c(Cl)cn(CC(=O)N(C)C)c3c2)c1 [Example 149, 2-[3-Chloro-6-(4-methyl-2-thienyl)pyrrolo[3,2-b]pyridin-1-yl]-N,N-dimethyl-acetamide] | 50.1 | –
CN(C)C(=O)Cn1cc(Cl)c2ncc(-c3cccc(C(F)F)c3)cc21 [Example 150, 2-[3-Chloro-6-[3-(difluoromethyl)phenyl]pyrrolo[3,2-b]pyridin-1-yl]-N,N-dimethyl-acetamide] | – | 7.3
CN(C)C(=O)Cn1cc(Cl)c2ncc(-c3cc(F)c(F)c(F)c3)cc21 [Example 152, 2-[3-Chloro-6-(3,4,5-trifluorophenyl)pyrrolo[3,2-b]pyridin-1-yl]-N,N-dimethyl-acetamide] | 100 | –
Cc1csc(-c2cnc3ccn(CC(=O)NC4CC4)c3c2)c1 [Example 153, N-Cyclopropyl-2-[6-(4-methyl-2-thienyl)pyrrolo[3,2-b]pyridin-1-yl]acetamide trifluoroacetate salt] | 63.1 | –
Cc1cccc(-c2cnc3ccn(CC(=O)NC4CC4)c3c2)c1C [Example 154, N-Cyclopropyl-2-[6-(2,3-dimethylphenyl)pyrrolo[3,2-b]pyridin-1-yl]acetamide trifluoroacetate salt] | 398 | –
Cc1cccc(-c2cnc3ccn(CC(=O)NC4CC4)c3c2)c1 [Example 155, N-Cyclopropyl-2-[6-(m-tolyl)pyrrolo[3,2-b]pyridin-1-yl]acetamide trifluoroacetate salt] | 251 | –
Cc1c(-c2cnc3ccn(CC(=O)NC4CC4)c3c2)cccc1C(F)(F)F [Example 157, N-Cyclopropyl-2-[6-[2-methyl-3-(trifluoromethyl)phenyl]pyrrolo[3,2-b]pyridin-1-yl]acetamide trifluoroacetate salt] | 251 | –
Cc1cc(F)ccc1-c1cnc2ccn(CC(=O)NC3CC3)c2c1 [Example 161, N-Cyclopropyl-2-[6-(4-fluoro-2-methyl-phenyl)pyrrolo[3,2-b]pyridin-1-yl]acetamide trifluoroacetate salt] | 200 | –
Cc1c(F)ccc(-c2cnc3ccn(CC(=O)N4CCC4)c3c2)c1C [Example 164, 1-(Azetidin-1-yl)-2-[6-(4-fluoro-2,3-dimethyl-phenyl)pyrrolo[3,2-b]pyridin-1-yl]ethanone trifluoroacetate salt] | 63.1 | –
Cc1c(-c2cnc3ccn(CC(=O)N4CCC4)c3c2)cccc1C(F)(F)F [Example 167, 1-(Azetidin-1-yl)-2-[6-[2-methyl-3-(trifluoromethyl)phenyl]pyrrolo[3,2-b]pyridin-1-yl]ethanone trifluoroacetate salt] | 39.8 | –
O=C(Cn1ccc2ncc(-c3ccc(F)cc3)cc21)NC1CC1 [Example 168, N-Cyclopropyl-2-[6-(4-fluorophenyl)pyrrolo[3,2-b]pyridin-1-yl]acetamide] | 251 | –
Cc1cc(-c2cnc3c(C)cn(CC(=O)N4CCC4)c3c2)ccc1F [Example 169, 1-(Azetidin-1-yl)-2-[6-(4-fluoro-3-methyl-phenyl)-3-methyl-pyrrolo[3,2-b]pyridin-1-yl]ethanone trifluoroacetate salt] | 200 | –
CCCCn1ccc2ncc(-c3ccc(F)c(C)c3)cc21 [Example 170, 1-Butyl-6-(4-fluoro-3-methyl-phenyl)pyrrolo[3,2-b]pyridine trifluoroacetate salt] | 316 | –
Cc1cc(-c2cnc3ccn(CCC(C)C)c3c2)ccc1F [Example 171, 6-(4-Fluoro-3-methyl-phenyl)-1-isopentyl-pyrrolo[3,2-b]pyridine trifluoroacetate salt] | 200 | –
Cc1cc(-c2cnc3ccn(Cc4ccncc4)c3c2)ccc1F [Example 179, 6-(4-Fluoro-3-methyl-phenyl)-1-(4-pyridylmethyl)pyrrolo[3,2-b]pyridine trifluoroacetate salt] | 50.1 | –

Continued by falling IC50, values first:

IC50 [nM] | pIC50 | SMILES
2000 | – | CC(C)(C)C(=O)Cn1ccc2ncc(-c3cccc(C(F)F)c3)cc21 [Example 144, 1-[6-[3-(Difluoromethyl)phenyl]pyrrolo[3,2-b]pyridin-1-yl]-3,3-dimethyl-butan-2-one]
1000 | – | Cc1cc(-c2cnc3c(Cl)cn(CC(=O)N(C)C)c3c2)ccc1F [Example 146, 2-[3-Chloro-6-(4-fluoro-3-methyl-phenyl)pyrrolo[3,2-b]pyridin-1-yl]-N,N-dimethyl-acetamide]
794 | – | Cc1cc(-c2cnc3ccn(Cc4cccnc4)c3c2)ccc1F [Example 172, 6-(4-Fluoro-3-methyl-phenyl)-1-(3-pyridylmethyl)pyrrolo[3,2-b]pyridine trifluoroacetate salt]
631 | – | O=C(Cn1ccc2ncc(-c3ccccc3)cc21)NC1CC1 [Example 158, N-Cyclopropyl-2-(6-phenylpyrrolo[3,2-b]pyridin-1-yl)acetamide trifluoroacetate salt]
501 | – | CCc1cccc(-c2cnc3ccn(CC(=O)C(C)(C)C)c3c2)c1 [Example 145, 1-[6-(3-Ethylphenyl)pyrrolo[3,2-b]pyridin-1-yl]-3,3-dimethyl-butan-2-one]
251 | – | Cc1c(F)ccc(-c2cnc3ccn(CC(=O)NC4CC4)c3c2)c1C [Example 159, N-Cyclopropyl-2-[6-(4-fluoro-2,3-dimethyl-phenyl)pyrrolo[3,2-b]pyridin-1-yl]acetamide trifluoroacetate salt]
200 | – | O=C(Cn1ccc2ncc(-c3ccc(Cl)c(Cl)c3)cc21)NC1CC1 [Example 156, N-Cyclopropyl-2-[6-(3,4-dichlorophenyl)pyrrolo[3,2-b]pyridin-1-yl]acetamide trifluoroacetate salt]
200 | – | Cc1ccccc1-c1cnc2ccn(CC(=O)NC3CC3)c2c1 [Example 160, N-Cyclopropyl-2-[6-(o-tolyl)pyrrolo[3,2-b]pyridin-1-yl]acetamide]
158 | – | Cc1cc(-c2cnc3ccn(CC4CC4)c3c2)ccc1F [Example 174, 1-(Cyclopropylmethyl)-6-(4-fluoro-3-methyl-phenyl)pyrrolo[3,2-b]pyridine trifluoroacetate salt]
126 | – | Cc1csc(-c2cnc3ccn(CC(=O)N4CCOCC4)c3c2)c1 [Example 132, 2-[6-(4-Methyl-2-thienyl)pyrrolo[3,2-b]pyridin-1-yl]-1-morpholino-ethanone]
100 | – | Cc1ccccc1-c1cnc2ccn(CC(=O)N3CCC3)c2c1 [Example 162, 1-(Azetidin-1-yl)-2-[6-(o-tolyl)pyrrolo[3,2-b]pyridin-1-yl]ethanone trifluoroacetate salt]
79.4 | – | CCc1cccc(-c2cnc3c(Cl)cn(CC(=O)N(C)C)c3c2)c1 [Example 151, 2-[3-Chloro-6-(3-ethylphenyl)pyrrolo[3,2-b]pyridin-1-yl]-N,N-dimethyl-acetamide]
79.4 | – | Cc1cc(F)ccc1-c1cnc2ccn(CC(=O)N3CCC3)c2c1 [Example 163, 1-(Azetidin-1-yl)-2-[6-(4-fluoro-2-methyl-phenyl)pyrrolo[3,2-b]pyridin-1-yl]ethanone trifluoroacetate salt]
63.1 | – | O=C(Cn1cc(F)c2ncc(-c3ccc(F)c(F)c3)cc21)C1CC1 [Example 136, 1-Cyclopropyl-2-[6-(3,4-difluorophenyl)-3-fluoro-pyrrolo[3,2-b]pyridin-1-yl]ethanone]
63.1 | – | Cc1cccc(-c2cnc3ccn(CC(=O)N4CCC4)c3c2)c1C [Example 165, 1-(Azetidin-1-yl)-2-[6-(2,3-dimethylphenyl)pyrrolo[3,2-b]pyridin-1-yl]ethanone trifluoroacetate salt]
31.6 | – | CC(C)(C)C(=O)Cn1ccc2ncc(-c3ccc(F)c(F)c3)cc21 [Example 140, 1-[6-(3,4-Difluorophenyl)pyrrolo[3,2-b]pyridin-1-yl]-3,3-dimethyl-butan-2-one]
31.6 | – | Cc1cc(-c2cnc3c(Cl)cn(CC(=O)NC4CC4)c3c2)ccc1F [Example 176, 2-[3-Chloro-6-(4-fluoro-3-methyl-phenyl)pyrrolo[3,2-b]pyridin-1-yl]-N-cyclopropyl-acetamide trifluoroacetate salt]
